From patent publication US20250134104A1, “AGROCHEMICAL ADJUVANTS” (Croda International Plc, priority 2022, published 2025)

System: Botrytis cinerea (ATCC 90479)
Assay: Botrytis cinerea hyphal growth inhibition on PDA agar (colony diameter), adjuvant with or without pyraclostrobin
Assay type: cell-based
Conditions: for inherent fungicidal activity on their own: adjuvant alone, at any of the concentrations tested; for Fold Change in Growth Inhibition: adjuvant concentration 50 μg/mL (Ia-Ie) or 64 μg/mL (If, Ig), 48 hours at 22° C., relative to fungicide alone; for fold increase in fungicidal activity compared to pyraclostrobin alone: pyraclostrobin at 0.06 μg/mL, against B. cinerea
Method: Percent Inhibition-The percent inhibition will be understood to represent the amount the fungicide and/or adjuvant that inhibits the visible growth of the microorganism after 48 hours incubation at 22° C. relative to vehicle treated controls. This is calculated using the following formula:
ØC=diameter of the colony grown on agar supplemented with vehicle (i.e. vehicle treated control), and
ØT=diameter of the colony grown on agar supplemented with fungicide and/or adjuvant formulated in an appropriate vehicle (i.e., solvent such as water C2H5OH, CH3OH, CH3CN, DMSO).
Fold Change—The fold change is a measure of the adjuvant/fungicide combination in inhibiting a microorganism compared to the fungicide alone. This indicates how the adjuvant performs relative to the fungicide alone. This is calculated using the following formula:
where: • INHAF=percent inhibition of fungal growth when treated with fungicide and adjuvant, and • INHF=percent inhibition of fungal growth when treated with fungicide alone.
Botrytis cinerea (ATCC 90479) was cultured on Difco Potato Dextrose Agar (PDA) for 7 days with diurnal UV cycles (12 h UV light and 12 h dark). Spores were harvested in a buffered, sterile saline solution (w/v: 0.9% NaCl with 1% Tween 80) and counted using a haemocytometer. The spore suspension was adjusted to a final concentration of 8.5x10^6 spores/mL to create a standardised inoculum.
To prepare hyphal fragments for adjuvant testing, 8.5x10^4 spores were used to inoculate 10 mL of Difco Potato Dextrose Broth in a 150×25 mm tube. The tube was incubated at 220 RPM, 22° C. for 48 hours.
To create hyphal fragments from the culture, the culture was transferred to a 50 mL plastic conical tube containing approximately 20 sterile 5 mm diameter glass beads and vortexed for 5 min. After vortexing the tube was allowed to stand for 5 min to allow large mycelial clumps to settle and then the top layer containing hyphal fragments was removed and used as inocula for growth inhibition assays.
Fungicides and adjuvants were dissolved in methanol and added to molten PDA (˜50° C.) and then the agar was distributed in the wells of 12 well multiwell plates (1 mL/well). The plates were cooled to room temperature and 10 μL of hyphal inoculum was added to the centre of each well. The plates were incubated at 22° C. for 48 hours and then the colony diameter was measured using a digital caliper. The biological growth control consisted of hyphae and vehicle (0.07% methanol), the negative control was media and vehicle (0.07% methanol).

[1] = with Pyra (pyraclostrobin) 0.0313 μg/mL
[2] = with Pyra (pyraclostrobin) 0.0625 μg/mL

Row | Structure (SMILES) | inherent fungicidal activity on their own | Fold Change in Growth Inhibition [1] | Fold Change in Growth Inhibition [2] | fold increase in fungicidal activity compared to pyraclostrobin alone
1 | O=C1NC(Cc2ccccc2)C(=O)N2CCCCC12 (centres unmarked) [DKP (If), cyclo (-Phe-Pip) diketopiperazine] | did not demonstrate any inherent fungicidal activity | 1.34 | 1.28 | 
2 | O=C1NC(Cc2ccccc2)C(=O)N2CCCC12 (centres unmarked) [DKP (Ia)] | did not demonstrate any inherent fungicidal activity | 1.32 | 1.15 | 
3 | O=C1NC(Cc2ccccc2)C(=O)N2CCC=C12 (centres unmarked) [DKP (Ig), cyclo (-Phe-dhPro) diketopiperazine] | did not demonstrate any inherent fungicidal activity | 1.22 | 1.27 | 
4 | O=C1CNC(=O)C(Cc2ccccc2)N1 (centres unmarked) [DKP (Ib)] | did not demonstrate any inherent fungicidal activity | 1.14 | 1.45 | 
5 | CN1C(=O)C2CCCN2C(=O)C1Cc1ccccc1 (centres unmarked) [DKP (Ic)] | did not demonstrate any inherent fungicidal activity | 1.23 | 1.52 | 1.52 fold
6 | CN1CC(=O)N(C)C(Cc2ccccc2)C1=O (centres unmarked) [DKP (Id)] | did not demonstrate any inherent fungicidal activity | 1.09 | 1.35 | 
7 | O=C1NCC(=O)N2CCCC12 (centres unmarked) [DKP (Ie)] | did not demonstrate any inherent fungicidal activity | 0.96 | 1.56 | 1.56 fold
